Patent US12594421B2, “Compositions and methods for increasing cancer cell sensitivity to alternating electric fields” (NOVOCURE GMBH, priority 2020, dated 2026)

Assays:
cancer cells [1] = test: Apoptosis, TTFields plus GSK3β inhibitor 9-ING-41 (FIG. 19); assay type: cell-based; conditions: cell line and concentration not stated
Procedure: (§1) Cell death was assessed by double staining of cells with FITC-conjugated annexin V (MEBCYTO© 4700 Apoptosis Kit; MBL©) and 7-Aminoactinomycin D (7-AAD; BioLegend©) as per manufacturer's instructions.

cancer cells [2] = test: Cell cytotoxicity, TTFields plus GSK3β inhibitor 9-ING-41 (FIG. 19); assay type: cell-based; conditions: cell line and concentration not stated
Procedure: (§2) Cells were detached from Inovitro™ dishes with 0.5 ml Trypsin A for approximately 5 minutes and then supplemented with 0.5 ml culture media. 200 μl of cells were taken to 96 well U-shaped plate to be counted in MACSQuant 10 flow cytometer. Analysis was performed with FlowJo_V10 software and statistics was done by GraphPad Prism 8 software.

A2780 cells [3] = assay type: cell-based; conditions: for inhibition concentration 25 (IC25): concentration added for 72 h, cell line not stated in b192 (8 nM is the A2780 concentration of b155)
Procedure: (§3) All cell lines were obtained from ATCC: U-87 (human glioma cell lines) and H1299 (human metastatic lung carcinoma), A2780 (ovarian cell line). Cells were cultured in Dulbecco's modified Eagle's medium (Biological Industries) or RPMI (GIBCO) medium supplemented with 5-10% fetal bovine serum and antibiotics.
5,000-50,000 single cells were suspended in 500 μL of media and seeded in the middle of a 22 mm diameter cover slip.
(§4) For induction of 24 hours or longer TTFields application the cover slips were placed in a ceramic dish of Inovitro™ system and allowed to incubate in a conventional tissue culture incubator (37° C., 95% air, 5% CO2) overnight. Once cells adhered to the cover slip, an additional 1.5 mL of media were added to each well and covered in Parafilm (P7793, Sigma Aldrich) to avoid evaporation of media. After an overnight incubation dishes were mounted onto Inovitro™ base plates (Novocure Inc., Haifa, Israel). Tumor Treating electric fields set anywhere from 1-6 V/cm were applied through an Inovitro™ power generator while frequencies ranged from 50-500 kHz. Incubation temperature was 18° C. with a target temperature of 37° C. for the ceramic dishes upon application of the TTFields. Corresponding control experiments were done by placing equivalent cover slips within ceramic dishes into a conventional tissue culture incubator (37° C., 5% CO2) and cells grown in parallel with the TTField-exposed coverslips.
(§5) BGT226, Alpalisib, Pictilisib, BKM120 and Dasatinib were added was added to cells 12-24 hours after seeding for inhibitor mono-treatment and combination treatment to a final concentration of 8 nM, 1 nm, 1 nm, 500 nm and 75 nm respectively in A2780 cells. Control and TTFields samples received same volume of DMSO. Following 72 hours of treatment media was replaced for media with no inhibitor and cells were grown for additional 96 hours. At 168 hours (7 days) cytotoxic assay was performed by GentelMACS cell count, Apoptosis assay and cells were seeded for colony assay (as specified in cell count and Quantification of cell death).
as §2

A2780 cells [4] = test: Colony assay (clonogenicity), TTFields plus inhibitor; assay type: cell-based, human; conditions: FIG. 18; BGT226 8 nM 72 h, then TTFields alone 96 h
Procedure: as §5
Colony assay: following cell count 300 cells of each treatment were seeded in duplicates in 6 well dishes with 2 ml media. Once colonies were visible they were washed with PBS. Cells were fixed in −20° C. methanol and stained with 0.5% Crystal violet. Colonies were imaged in camera and counted using Image J (FIJI).

A2780 cells [5] = test: Apoptosis assay (annexin V / 7-AAD), TTFields plus inhibitor; assay type: cell-based, human; conditions: FIG. 6E
Procedure: as §5, §1

[6] = test system: Akt phosphorylation in Ser473; test: Western blot of Akt phosphorylation (pAkt Ser473) after TTFields with BGT226; assay type: cell-based, human
Procedure: Following TTFields application cells were transferred to cold PBS plates for wash.
RIPA lysis buffer (R0278, Sigma-Aldrich), supplemented with a cocktail of protease (Complete Mini, Roche), and phosphatase inhibitors (Halt #78420, Thermo Scientific) was added to plates and cells were scraped with approximately 100 μl supplemented RIPA buffer for 8 Inovitro™ dishes.
Extracts were shaken at 4° C. for a duration of 30 minutes. Samples were centrifuged (20 min, 14,000 rpm, 4° C.). supernatant was transferred and protein concentration was determined by BCA protein assay kit. […]
After electrophoresis, proteins were transferred to 0.2 μm polyvinylidene difluoride membrane (Immuno-Blot PVDF #162-0177, Bio-Rad) and probed with the appropriate primary antibody: GAPDH (SC-32233, Santa Cruz), Vinculin (ab140007, Abcam), Cyclin D1 (2922, Cell Signaling), Rb (9309, Cell Signaling), pRb S807/811 (8516, Cell Signaling), pAkt 5473, (4051, Cell signaling), Akt (2920, Cell signaling)), FAK (3283S, Cell signaling), Phospho-FAK (Tyr397) (3283S, Cell signaling, Src (2109S, cell signaling) and Phospho-Src (Tyr416) (2101S, Cell signaling). followed by horseradish peroxidase-conjugated secondary antibody (goat anti rabbit 7074, Cell Signaling and goat anti mouse 7076, Cell Signaling) and a chemiluminescent substrate (WBLUF0100, Signa-Aldrich). Quantification of bands was done by Image J software. […]

H1299 cells = test: Cytotoxicity by cell count, TTFields plus Dasatinib; assay type: cell-based, human; conditions: H1299, TTFields 150 kHz, Dasatinib 0.03 μM (IC25) 72 h, then TTFields alone 96 h
Procedure: as §3
as §4, with “Corresponding control experiments were done by placing equivalent cover slips within ceramic dishes into a conventional tissue culture incubator (37° C., 5% CO2) and cells grown in parallel with the TTField-exposed coverslips.” left out
Cells were detached from Inovitro™ dishes with 0.5 ml Trypsin A for approximately 5 minutes and then supplemented with 0.5 ml culture media. 200 μl of cells were taken to 96 well U-shaped plate to be counted in MACSQuant 10 flow cytometer. […]

Cn1cc(C2=C(c3coc4ccc(F)cc34)C(=O)NC2=O)c2cc3c(cc21)OCO3 [9-ING-41]
efficacy of TTFields treatment in apoptosis, combination therapy (cancer cells [1]): did not increase efficacy of TTFields treatment | efficacy of TTFields treatment in cell cytotoxicity, combination therapy (cancer cells [2]): did not increase efficacy of TTFields treatment

COc1ccc(-c2ccc3ncc4c(c3c2)n(-c2ccc(N3CCNCC3)c(C(F)(F)F)c2)c(=O)n4C)cn1 [BGT226]
cell resistance caused by pro-survival signaling by TTFields (A2780 cells [3]; FIG. 6A-6E, cell line not stated): inhibited by BGT226 | cell survival, combination of TTFields with BGT226 (A2780 cells [3]; FIG. 6C, cell line not stated): synergistic effect in cell survival | efficacy of combination with TTFields, BGT226 compared with Paclitaxel (A2780 cells [3]; FIG. 18, BGT226 8 nM or Paclitaxel 2 nM 72 h, then TTFields alone 96 h): more effective than Paclitaxel and TTFields | inhibition concentration 25 (IC25) (A2780 cells [3]; FIG. 18): 8 nM | clonogenicity, combination therapy with TTFields (A2780 cells [4]): dramatic effect in combination therapy with BGT226 compared to Paclitaxel | live cells (AnnexinV-/7AAD-), inhibitor alone compared to combined treatment (A2780 cells [5]): more live cells | apoptotic assay, combined treatment of TTFields and inhibitor (A2780 cells [5]; cell line not stated): induce apoptosis in reminder of cells | phosphorylation of Akt in Ser473 following combined treatment of TTFields and BGT226 ([6]; A2780 cells, BGT226 5 nM for 72 h, then media without inhibitor 96 h, lysate at 168 hours): decrease in phosphorylation of Akt in Ser473 | increase in Akt phosphorylation following TTFields ([6]; Western blot, FIG. 5A-5B): inhibited by BGT226

Cc1nc(Nc2ncc(C(=O)Nc3c(C)cccc3Cl)s2)cc(N2CCN(CCO)CC2)n1 [Dasatinib]
treatment efficacy of TTFields plus Dasatinib, cytotoxic effect (A2780 cells [3]; A2780, TTFields 200 kHz, Dasatinib 0.075 μM (IC25) 72 h, then TTFields alone 96 h): increased treatment efficacy relative to TTFields or inhibitor alone in all combination groups | treatment efficacy of TTFields plus Dasatinib, cytotoxic effect (H1299 cells): increased treatment efficacy relative to TTFields or inhibitor alone in all combination groups

CC(=O)O[C@H]1C(=O)[C@@]2(C)[C@H]([C@H](OC(=O)c3ccccc3)[C@]3(O)C[C@H](OC(=O)[C@H](O)[C@@H](NC(=O)c4ccccc4)c4ccccc4)C(C)=C1C3(C)C)[C@]1(OC(C)=O)CO[C@@H]1C[C@@H]2O [Paclitaxel]
cytotoxicity of combination with TTFields (A2780 cells [3]; FIG. 18, Paclitaxel 2 nM 72 h, then TTFields alone 96 h): effective to a lesser extent than that of BGT226 | inhibition concentration 25 (IC25) (A2780 cells [3]; FIG. 18): 2 nM
